Values joined by “and” are separate entries in the source; they are usually repeats but may differ in a detail not shown here. Identical values can stand only once. Counter-ions that a name gives are not always drawn.
Assays:
Leishmania = experiment: Anti Leishmania tests (amastigotes and promastigotes), summary; format: cell-based, L. tropica
Description: (§1) A. Scoring of drug activity:
(§2) a. amastigotes in peritoneal exudate cells in Mc Coy's medium in vitro at 37° C.
(§3) b. promastigotes in Mc Coy's medium in vitro at 27° C.

L. tropica promastigotes = L. tropica promastigotes in Mc Coy's medium in vitro at 27° C.; format: cell-based
Description: as §1, §3
+++=no viable parasites after 24 hours
++=no viable parasites after 48 hours
+=no viable parasites after 72 hours
±=no viable parasites after 96 hours
-=viable parasites after 120 hours.

L. tropica amastigotes = L. tropica amastigotes in peritoneal exudate cells in Mc Coy's medium in vitro at 37° C.; format: cell-based
Description: as §1, §2
+++=clearance of all parasites in 24 hrs
++=clearance of all parasites in 48 hrs
+=clearance of all parasites in 72 hrs
±=partial clearance of parasites in 72 hours or more
-=no activity against parasites.

Trypanosoma = Trypanosoma in RPMI medium in vitro at 37° C.; format: cell-based; conditions: for Trypanosoma in vitro, activity score: RPMI medium, 37° C.; for active against Trypanosoma: summary
Description: Trypanosoma in RPMI medium in vitro at 37° C. Scoring as in b.

[1] = system: 4 mycoplasma (M. gallisepticum, capricolum, M. hominis, A. laidlawii); experiment: organism not typed; format: cell-based; conditions: read-out: 50% inhibition of growth in liquid medium, concentration
Candida albicans = experiment: Antimycotic activity (human), growth on Sabouraud dextrose agar; format: cell-based; parameters: key to the marks not given beside the values
Excerpt: Control (full growth): ++++

[2] = Toxic limit in the HSV replication test; format: cell-based, Green monkey; conditions: monkey, bsc-1 cells; read-out: T.L. Toxic Limit (highest concentration of compound which is completely not toxic)
Excerpt: BSC-1 (Green monkey Kidney)
*T.L. The highest concentration of compound which is completely not toxic

HSV-1 (Herpes Simplex) = experiment: Inhibition test on HSV replication; format: cell-based; conditions: Human alphaherpesvirus 1, BSC-1 cells, 10 PFU/cell; for inhibition at 25 µg/mL: 25 μg/ml; for inhibition at 50 µg/mL: 50 μg/ml; for inhibition at 100 µg/mL: 100 μg/ml
Excerpt: |INHIBITION TEST ON HSV REPLICATION |Cells |BSC-1 (Green monkey Kidney) |Virus |HSV-1 (Herpes Simplex) |Inoculum |10 PFU/cell |Medium |DMEM + 10% C.S. | Herpes | J. Levitt & Y. Becker | Virology 31, 129-134 (1967) | **% Inhibition of control infected for some time with same virus PFV with | no inhibition.

[3] = system: stereotyped behaviour (sniffing, biting, repetitive head movement); experiment: Stereotyped behaviour in mice; format: in vivo, Male ICR albino mice; parameters: stereotyped behaviour score / Total Score (stereotyped behaviour) / Mean Score (stereotyped behaviour): scale not given here; conditions: for Total Score (stereotyped behaviour): 0-240 min; for Total Score (stereotyped behaviour) / stereotyped behaviour score / Mean Score (stereotyped behaviour): 50 mg/kg i.p.; for Total Score (stereotyped behaviour) / stereotyped behaviour score: one line per mouse, in order Mouse 1 to Mouse 4; for Mean Score (stereotyped behaviour): mean of 4 mice
Description: Male ICR albino mice weighing 25-30 g were put in cages with a metal grid floor, 4 in each cage. Drugs were injected intraperitoneally and stereotyped behaviour (sniffing, biting, repetitive head movement) was evaluated every 30 min.

[4] = system: haloperidol-induced catalepsy; experiment: Antiparkinson activity: anticataleptic effect in rats (haloperidol catalepsy); format: in vivo, Male Charles River albino rats; conditions: individual rats, 80 mg/kg i.p., one line per rat
Description: (§4) Male Charles River albino rats, weighing 200-250 g, were used. Catalepsy was produced by haloperidol, 5 mg/kg i.p. The animals were placed with their front paws on a horizontal bar, about 10 cm above the ground, and animals were considered cataleptic if not changing posture for at least 30 sec. Cataleptic animals were injected l.p. with one of the drugs at a dose of 40-80 mg/kg. Catalepsy was estimated again at the intervals indicated.
as §4, with “rats, wighing” for “rats, weighing”, “injected i.p.” for “injected l.p.”, “mg/kg. catalepsy” for “mg/kg. Catalepsy”

Trichophyton rubrum = experiment: Antimycotic activity (human), growth on Sabouraud dextrose agar; parameters: key to the marks not given beside the values; conditions: 10 μg/ml
[5] = system: Trichophyton mentagrophytes; experiment: as above; parameters: key to the marks not given beside the values; conditions: 10 μg/ml

SMILES: CNNCC12CC3CC(CC(C3)C1)C2 [Example 1, 1-(Adamant-1'-ylmethyl)-2-methylhydrazine hydrochloride]
- active against Leishmania (Leishmania): active
- Leishmania promastigote, activity score (L. tropica promastigotes; 10 μg): - (viable parasites after 120 hours.)
- Leishmania promastigote, activity score (L. tropica promastigotes; 100 μg): +++ (no viable parasites after 24 hours)
- Leishmania amastigote, activity score (L. tropica amastigotes; 10 μg): ± (partial clearance of parasites in 72 hours or more)
- Leishmania amastigote, activity score (L. tropica amastigotes; 100 μg): ± (partial clearance of parasites in 72 hours or more)
- Trypanosoma in vitro, activity score (Trypanosoma; 10 μg): ± (no viable parasites after 96 hours)
- Trypanosoma in vitro, activity score (Trypanosoma; 100 μg): +++ (no viable parasites after 24 hours)
- active against Trypanosoma (Trypanosoma): active

SMILES: c1ccc(CNNCC23CC4CC(CC(C4)C2)C3)cc1 [Example 3, 1-(Adamant-1'-ylmethyl)-2-benzylhydrazine hydrochloride]
- IC50 [1]: 5 to 30 µg/mL
- growth of C. albicans (Candida albicans; 10 μg/ml): ++++
- growth of C. albicans (Candida albicans; 50 μg/ml): ++++
- growth of C. albicans (Candida albicans; 100 μg/ml): ++++

SMILES: C1CCN(NCC23CC4CC(CC(C4)C2)C3)C1 [Example 7, 1-(Adamant-1'-ylmethylamino)pyrrolidine hydrochloride]
- MNTC [2]: 50 µg/mL
- inhibition at 25 µg/mL (HSV-1 (Herpes Simplex)): 72.5%
- inhibition at 50 µg/mL (HSV-1 (Herpes Simplex)): 92%
- inhibition at 75 µg/mL (HSV-1 (Herpes Simplex); 75 μg/ml): 98%
- inhibition at 100 µg/mL (HSV-1 (Herpes Simplex)): 99.9%
- Total Score (stereotyped behaviour) ([3]; hydrochloride, 50 mg/kg): 17 and 11 and 6 and 3
- stereotyped behaviour score ([3]; 0 min): 0
- stereotyped behaviour score ([3]; 30 min, hydrochloride, 50 mg/kg): 2 and 0 (3×)
- stereotyped behaviour score ([3]; 45 min, hydrochloride, 50 mg/kg): 2 and 0 (2×) and 1
- stereotyped behaviour score ([3]; 60 min, hydrochloride, 50 mg/kg): 2 and 0 (3×)
- stereotyped behaviour score ([3]; 90 min, hydrochloride, 50 mg/kg): 2 (2×) and 0 (2×)
- stereotyped behaviour score ([3]; 120 min, hydrochloride, 50 mg/kg): 2 (2×) and 0 (2×)
- stereotyped behaviour score ([3]; 135 min, hydrochloride, 50 mg/kg): 2 (2×) and 0 (2×)
- stereotyped behaviour score ([3]; 150 min, hydrochloride, 50 mg/kg): 2 (2×) and 1 and 0
- stereotyped behaviour score ([3]; 180 min, hydrochloride, 50 mg/kg): 1 (3×) and 0
- stereotyped behaviour score ([3]; 210 min, hydrochloride, 50 mg/kg): 1 (2×) and 2 (2×)
- stereotyped behaviour score ([3]; 240 min): 1
- Mean Score (stereotyped behaviour) [3]: 9.25
- found to be active ([3]; summary of the CNS tests): active
- anticataleptic effect ([4]; in order rat 1 to rat 5, hydrochloride): 1/4 and 0/4 (3×) and 3/4
- IC50 [1]: 5 to 30 µg/mL

SMILES: C1CCN(NCC23CC4CC(CC(C4)C2)C3)CC1 [Example 8, 1-(Adamant-1'-ylmethylamino)piperidine hydrochloride]
- growth of T. rubrum (Trichophyton rubrum): ++++
- IC50 [1]: 5 to 30 µg/mL
- growth of T. mentagrophytes [5]: ++++
- growth of C. albicans (Candida albicans; 10 μg/ml): ++++
- growth of C. albicans (Candida albicans; 50 μg/ml): ++++
- growth of C. albicans (Candida albicans; 100 μg/ml): ++++

SMILES: NNCC12CC3CC(CC(C3)C1)C2 [Example 14, (Adamant-1-ylmethyl)hydrazine hydrochloride]
- active against Leishmania (Leishmania): active
- Leishmania amastigote, activity score (L. tropica amastigotes; 10 μg): ± (partial clearance of parasites in 72 hours or more)
- Leishmania amastigote, activity score (L. tropica amastigotes; 100 μg): ++ (clearance of all parasites in 48 hrs)
- Trypanosoma in vitro, activity score (Trypanosoma; 10 μg): +++ (no viable parasites after 24 hours)
- Trypanosoma in vitro, activity score (Trypanosoma; 100 μg): +++ (no viable parasites after 24 hours)
- active against Trypanosoma (Trypanosoma): active

SMILES: CN(N)CC12CC3CC(CC(C3)C1)C2 [Example 15, 1-Methyl-1-(adamant-1'-ylmethyl)hydrazine hydrochloride hydrate]
- active against Leishmania (Leishmania): active
- Leishmania promastigote, activity score (L. tropica promastigotes; 10 μg): - (viable parasites after 120 hours.)
- Leishmania promastigote, activity score (L. tropica promastigotes; 100 μg): +++ (no viable parasites after 24 hours)

SMILES: CN(N)CC1C2CC3CC(C2)CC1C3 (stereo not drawn) [Example 16, 1-Methyl-1-(adamant-2'-ylmethyl)hydrazine hydrochloride]
- growth of C. albicans (Candida albicans; 10 μg/ml): ++++
- growth of C. albicans (Candida albicans; 50 μg/ml): ++++

SMILES: c1ccc(CCNNCC23CC4CC(CC(C4)C2)C3)cc1 [Example 25, 1-(Adamant-1'-ylmethyl)-2-phenethylhydrazine dihydrate]
- IC50 [1]: 5 to 30 µg/mL

SMILES: C1CCN(NCC2C3CC4CC(C3)CC2C4)C1 (stereo not drawn) [Example 31, 1-(Adamant-2'-ylmethylamino)pyrrolidine hydrochloride]
- inhibition at 25 µg/mL (HSV-1 (Herpes Simplex)): 51%
- inhibition at 50 µg/mL (HSV-1 (Herpes Simplex)): 91%
- inhibition at 100 µg/mL (HSV-1 (Herpes Simplex)): 97%

SMILES: CC(C)N(N)CC12CC3CC(CC(C3)C1)C2 [Example 38, 1-(Adamant-1'-ylmethyl)-1-isopropylhydrazine hydrochloride]
- growth of T. rubrum (Trichophyton rubrum): ++++
- IC50 [1]: 5 to 30 µg/mL
- growth of T. mentagrophytes [5]: ++++
- growth of C. albicans (Candida albicans; 10 μg/ml): ++++
- growth of C. albicans (Candida albicans; 50 μg/ml): ++++
- growth of C. albicans (Candida albicans; 100 μg/ml): ++++

SMILES: N=C(N)c1ccc(OCCCCCOc2ccc(C(=N)N)cc2)cc1 [Pentamidine, reference compound]
- Leishmania promastigote, activity score (L. tropica promastigotes; 10 μg): +++ (no viable parasites after 24 hours)
- Leishmania promastigote, activity score (L. tropica promastigotes; 100 μg): +++ (no viable parasites after 24 hours)
- Trypanosoma in vitro, activity score (Trypanosoma; 10 μg): - (viable parasites after 120 hours.)
- Trypanosoma in vitro, activity score (Trypanosoma; 100 μg): ++ (no viable parasites after 48 hours)

SMILES: NC12CC3CC(CC(C3)C1)C2 [Symmetrel, reference compound]
- Total Score (stereotyped behaviour) ([3]; 50 mg/kg): 17 (3×) and 13
- stereotyped behaviour score ([3]; 0 min): 0
- stereotyped behaviour score ([3]; 30 min): 1
- stereotyped behaviour score ([3]; 45 min): 1
- stereotyped behaviour score ([3]; 60 min, 50 mg/kg): 2 (2×) and 1 (2×)
- stereotyped behaviour score ([3]; 90 min, 50 mg/kg): 1 (3×) and 2
- stereotyped behaviour score ([3]; 120 min): 2
- stereotyped behaviour score ([3]; 135 min): 2
- stereotyped behaviour score ([3]; 150 min): 2
- stereotyped behaviour score ([3]; 180 min): 2
- stereotyped behaviour score ([3]; 210 min, 50 mg/kg): 2 (3×) and 1
- stereotyped behaviour score ([3]; 240 min, 50 mg/kg): 2 (3×) and 0
- Mean Score (stereotyped behaviour) [3]: 16
- anticataleptic effect ([4]; in order rat 1 to rat 5): 0/4 and 2/4 and 3/4 (3×)
